{
  "source": "patent US20070160553A1",
  "about": "“Use of agents for the cosmetic treatment of keratin-containing material” (WELLA AG, priority 2004, published 2007)",
  "key": {"[1]": {"experiment": "Conventional hair-care effects (combability, luster, volume, friction)", "settings": "in appropriate formulations", "text": "This is in stark contrast to the known hair-care actions of other representatives of this class of substances, for example of betaine (trimethylammonioacetate) or carnitine [3-hydroxy-4-(trimethylammonio)butyric acid]. […] Other hair-care criteria such as an increase in hair volume or an improvement in the hair fullness or hair styling were also not observed.\nTests for determining the triboelectric properties have also shown that depending on the use concentration of compounds of formulas (I) and (II) the electrostatic chargability of hair was reduced. […] This is particularly surprising considering that in no comparative test did the formulation containing as active ingredient a compound of formula (I) and (II) show a reduction in the mechanical coefficient of friction. […] The protective function therefore is independent of the typical hair-care criteria and consists only of attenuating the effects of hair-damaging factors."}, "[2]": {"settings": "bleached hair, cycles until 63.2% of hairs are broken", "text": "The measurements of rubbing resistance make it possible to draw conclusions concerning the resistance of the hair to mechanical stresses. The measuring principle consists of exposing individual hair fibers to repeated (small) mechanical stresses and measuring the number of repeating cycles needed to make the material break. A higher number of stressing cycles indicates a higher resistance of the hair to mechanical stresses. The evaluation of the hair resistance test results, which initially consists only of determining the number of stressing cycles to hair breakage for each individual hair, is carried out by Weibull's reliability analysis. According to Weibull, the breakage frequency (here: hair breakage) can be described by the following equation: H=1−exp[−(x/Θ)]b linearized: lnln[1/(1−H)]=b(ln x)−b(ln Θ) H=breakage frequency (=cumulated hair breakage), normalized to 1 (1=100%) X=lifetime variable (=cycles to hair breakage) Θ=characteristic lifetime (number of cycles until 63.2% of the hairs are broken) b=shape parameter, slope of the fitted straight lines.\nFor the Weibull analysis, therefore, that data must be plotted as lnln(1/1−H) against Inx. After linear regression, the axial segment indicates b(ln Θ) and the slope gives b. The characteristic lifetime E is then obtained from exp[−(axial segment/slope)]. The longer the characteristic lifetime, the higher is the resistance of the hair to breakage.\nAnother important parameter for determining the condition of the hair or the degree of damage to the hair is the determination of the rubbing resistance as a measure of the mechanical weakening of the hair (see legend for FIG. 1) [sic].\nTo this end, after previous standardized bleaching, strands of human hair (of Caucasian origin), were subjected to the strongly weakening conditions of a permanent wave procedure or a hair tinting by standardized methods. Then, the ends of 20 individual hairs per sample, namely of 10 individual hairs per strand, were fastened to holders, and the rubbing resistance was measured."}, "[3]": {"settings": "active present in permanent wave products, compared to otherwise identically treated hair", "text": "Tear strength is viewed as a parameter for determining damage to hair; the higher the force needed to tear a hair, the better is the hair quality."}, "[4]": {"settings": "shampoo as in Example 6, 2.0 wt. % active; 20 hairs; control without active 12.0", "procedure": "The determination of the tear strength of hair, which is an indicator of the structural integrity of the hair cortex and thus a measure of the degree of damage, was carried out by tensile-elongation measurements common for these purposes. From each hair strand we selected 20 individual hairs and determined the individual hair diameters with a computer-controlled laser micrometer. Then, by means of a tensile-elongation tester (MTT 160/600 Series Miniature Tensile Tester, Serial No. 600.95.05.001, supplied by DIA-STRON Ltd, England), the force needed to tear the individual hairs was measured.\nFrom these individual tear strength measurements which because of the different hair diameters gave different values, the bundle tensile strength (BTS) was calculated by taking 0.08 mm for a hair diameter (average diameter). By including the hair density, finally, the conversion into the unit of bundle tensile strength (cN/tex) was performed. The higher the numerical value of the bundle tensile strength, the lower is the hair damage."}},
  "note": "Values joined by “and” are separate entries in the source; they are usually repeats but may differ in a detail not shown here. Equal values may be shown once. Read-outs that look alike come from different tables or passages of the source.",
  "data": [
    {"smiles": "C[n+]1cccc(C(=O)[O-])c1.Cl", "note": "[1-Methylpyridinium-3-carboxylate hydrochloride]", "values": [
      {"measurement": "antistatic effect", "setting": "preparation containing 1% as the hydrochloride", "value": "statistically probable antistatic effect"}
    ]},
    {"smiles": "C[N+](C)(C)CC(=O)[O-]", "note": "[betaine, trimethylammonioacetate]", "values": [
      {"measurement": "combability", "setting": "[1]", "value": "pronounced improvement"},
      {"measurement": "luster of the hair", "setting": "[1]", "value": "definitely improved"}
    ]},
    {"smiles": "C[n+]1cccc(C(=O)[O-])c1", "note": "[1-methylpyridinium-3-carboxylate]", "values": [
      {"measurement": "hair strand volume after combing (electrostatic charge)", "setting": "bleached strands, hair-treatment preparation with 0.5% active, 5 minutes, vs untreated control", "value": "obviously smaller volume than the untreated control hairs"},
      {"measurement": "Characteristic Lifetime", "setting": "[2]; hair tinting agent + 0.1% active", "value": "increase"},
      {"measurement": "Characteristic Lifetime", "setting": "[2]; hair tinting agent + 0.1% active, listed as 1-methylpyridium-3-carboxylate", "value": 568},
      {"measurement": "Characteristic Lifetime", "setting": "[2]; hair tinting agent + 1% active", "value": "even higher than those shown by the chemically untreated (unbleached, natural) hair"},
      {"measurement": "Characteristic Lifetime", "setting": "[2]; hair tinting agent + 1% active, listed as 1-methyl-pyridinium-3-carboxylate", "value": "further increase"},
      {"measurement": "Characteristic Lifetime", "setting": "[2]; hair tinting agent + 1% active, listed as 1-methylpyridium-3-carboxytate", "value": 643},
      {"measurement": "Characteristic Lifetime", "setting": "[2]; permanent wave formulation with 0.5% active, listed as 1-methylpyridium-3-carboxylate", "value": 546},
      {"measurement": "tear strength", "setting": "[3]", "value": "significant increase"},
      {"measurement": "bundle tensile strength (BTS)", "setting": "[4]", "value": "12.64±0.4 cN/tex and 12.64 cN/tex"}
    ]}
  ]
}
